In patent publication US12018021B2 (UCB Biopharma SRL, priority 2018, dated 2024):
pIC50: −log10 of the molar value.

What follows are compounds tested against IgE-Tb / FcεRIα-Y131A-AF488 (Homo sapiens, UniProt P01854) (assay: IgE-Tb / FcεRIα-Y131A-AF488 FRET assay (protocol for examples 1 to 233)). Settings: examples 1 to 233: 5 nM IgE-Tb, 25 nM FcεRIα-Y131A-AF488, incubated 2 hours at room temperature; read-out: Y131A FRET IC50 range.
Assay type: binding
Method: For examples 1 to 233, the assay was conducted according to the following: Each assay reaction was conducted in a volume of 25 μl in a 384-well half-volume plate. 10 point compound serial dilutions (3-fold) were generated in DMSO at a concentration of ×50 that of the final assay concentration (FAC). Compound solutions were then prepared by IgE-Tb diluting 10-fold in assay buffer. For the assay, 5 μl of diluted compound was added to 10 μl of, followed by addition of 10 μl FcεRIα-Y131A-AF488. FRET reagents FACs were 5 nM IgE-Tb, 25 nM FcεRIα-Y131A-AF488. Usually the top FAC of compound in the assay was 10 μM. The final DMSO concentration was 2%. The minimum signal (MIN) was measured by adding 5l unlabelled FcεRIα at 1 μM (FAC=200 nM) to the FRET reagents. The maximum FRET signal (MAX) was measured in wells containing FRET reagents but no compound. The assay was incubated for 2 hours at room temperature, protected from light and evaporation, and with gentle agitation.
Measurement of FRET for each well was carried out by exciting at 330 nm and measuring emission at 495/520 nm using an Envision plate reader (Perkin Elmer). FRET ratio was calculated as follows: Emission at 520/Emission at 495×1000.
The FRET ratio was used for the data analysis.
Z′ was calculated as follows (σ=standard deviation and μ=mean): 1−((3×σMAX)+(3×σMIN))/(μMAX−μMIN)
Z′ above 0.5 was considered a good assay.
Background signal (MIN) was subtracted from all wells. Using the background subtracted values, the percent inhibition by compound in each test-well was calculated as follows: 100−Test-well FRET ratio/MAX FRET ratio×100.
Percent inhibition was plotted against compound concentration. IC50 values for each compound were determined using four parameter logistic fit model using the XLFIT5 software package.

Sequence of IgE-Tb / FcεRIα-Y131A-AF488 (P01854 1-427 limits assumed, stated change not applied): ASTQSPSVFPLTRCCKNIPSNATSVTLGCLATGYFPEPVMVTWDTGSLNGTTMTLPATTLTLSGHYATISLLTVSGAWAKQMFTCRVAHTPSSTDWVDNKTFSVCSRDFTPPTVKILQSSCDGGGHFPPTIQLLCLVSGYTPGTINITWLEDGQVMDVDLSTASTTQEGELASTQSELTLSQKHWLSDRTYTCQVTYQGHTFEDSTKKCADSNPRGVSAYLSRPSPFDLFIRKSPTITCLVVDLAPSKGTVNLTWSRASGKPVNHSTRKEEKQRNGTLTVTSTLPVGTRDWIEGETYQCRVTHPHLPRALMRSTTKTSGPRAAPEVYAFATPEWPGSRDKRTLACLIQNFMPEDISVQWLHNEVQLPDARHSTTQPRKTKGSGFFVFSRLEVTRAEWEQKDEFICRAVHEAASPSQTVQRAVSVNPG

First: CC(O)CNS(=O)(=O)c1c(NC(=O)C2CC2)sc2c1CCCC2 (centres unmarked) [Example 19, N-[3-(2-Hydroxypropylsulfamoyl)-4,5,6,7-tetrahydrobenzothiophen-2-yl]cyclopropanecarboxamide]
Second: CCCCS(=O)(=O)c1c(NC(=O)C2CC2)sc2c1CCCC2 [Example 22, N-(3-Butylsulfonyl-4,5,6,7-tetrahydrobenzothiophen-2-yl)cyclopropanecarboxamide]
The pIC50 of the first is higher: greater than 6.00 for the first, 5.00 to 6.00 for the second. The first is the more potent here.

First: O=C(Nc1sc2c(c1S(=O)(=O)N1CCCC1)CCCC2)C1CC1 [Example 20, N-(3-Pyrrolidin-1-ylsulfonyl-4,5,6,7-tetrahydrobenzothiophen-2-yl)cyclopropanecarboxamide]
Second: O=C(Nc1sc2c(c1S(=O)(=O)NC1CC(F)C1)CCCC2)C1CC1 (centres unmarked) [Example 21, N-[3-[(3-Fluorocyclobutyl)sulfamoyl]-4,5,6,7-tetrahydrobenzothiophen-2-yl]cyclopropanecarboxamide]
The pIC50 of the first is lower: 5.00 to 6.00 for the first, greater than 6.00 for the second. The second is the more potent here.

CC(C)CNS(=O)(=O)c1c(NC(=O)C2CC2)sc2c1CC(Nc1ncccn1)CC2 (centres unmarked) [Example 23, N-[3-(Isobutylsulfamoyl)-5-(pyrimidin-2-ylamino)-4,5,6,7-tetrahydrobenzothiophen-2-yl]cyclopropanecarboxamide] and CC(C)CNS(=O)(=O)c1c(NC(=O)C2CC2)sc2c1CC(NS(C)(=O)=O)CC2 (centres unmarked) [Example 24, N-[3-(Isobutylsulfamoyl)-5-(methanesulfonamido)-4,5,6,7-tetrahydrobenzothiophen-2-yl]cyclopropanecarboxamide] cannot be ordered by pIC50: greater than 6.00 for the first, greater than 6.00 for the second.

CCCNS(=O)(=O)c1c(NC(=O)C2CC2)sc2c1CC(NC(=S)Nc1ccc(OC)cc1)CC2 (centres unmarked) [Example 25, N-[5-[(4-Methoxyphenyl)carbamothioylamino]-3-(propylsulfamoyl)-4,5,6,7-tetrahydrobenzothiophen-2-yl]cyclopropanecarboxamide] and CCCNS(=O)(=O)c1c(NC(=O)C2CC2)sc2c1CC(NC(=O)Nc1ccc(OC)cc1)CC2 (centres unmarked) [Example 26, N-[5-[(4-Methoxyphenyl)carbamoylamino]-3-(propylsulfamoyl)-4,5,6,7-tetrahydrobenzothiophen-2-yl]cyclopropanecarboxamide] cannot be ordered by pIC50: greater than 6.00 for the first, greater than 6.00 for the second.

First: CCNC(=O)C1CCCc2c1sc(NC(=O)C1CC1)c2S(=O)(=O)NCC(C)C (centres unmarked) [Example 27, 2-(Cyclopropanecarbonylamino)-N-ethyl-3-(isobutylsulfamoyl)-4,5,6,7-tetrahydrobenzothiophene-7-carboxamide]
Second: CCNC(=O)C1CCc2sc(NC(=O)C3CC3)c(S(=O)(=O)NCC(C)C)c2C1 (centres unmarked) [Example 28, 2-(Cyclopropanecarbonylamino)-N-ethyl-3-(isobutylsulfamoyl)-4,5,6,7-tetrahydrobenzothiophene-5-carboxamide]
The pIC50 of the first is lower: 5.00 to 6.00 for the first, greater than 6.00 for the second.

First: CCCC[S+]([O-])c1c(NC(=O)C2CC2)sc2c1CCCC2 (centres unmarked) [Example 29, N-(3-Butylsulfinyl-4,5,6,7-tetrahydrobenzothiophen-2-yl)cyclopropanecarboxamide]
Second: CCNC(=NC#N)NC1CCc2sc(NC(=O)C3CC3)c(S(=O)(=O)NCC3CC3)c2C1 (centres unmarked) [Example 31, N-[5-[[N′-Cyano-N-ethyl-carbamimidoyl]amino]-3-(cyclopropylmethylsulfamoyl)-4,5,6,7-tetrahydrobenzothiophen-2-yl]cyclopropanecarboxamide]
The pIC50 of the first is lower: 5.00 to 6.00 for the first, greater than 6.00 for the second. The second is the more potent here.

Cc1ccc(NC(=NC#N)NC2CCc3sc(NC(=O)C4CC4)c(S(=O)(=O)NCC4CC4)c3C2)cc1 (centres unmarked) [Example 30, N-[5-[[N′-Cyano-N-(p-tolyl)carbamimidoyl]amino]-3-(cyclopropylmethylsulfamoyl)-4,5,6,7-tetrahydrobenzothiophen-2-yl]cyclopropanecarboxamide] and O=C1NCc2cc(NC(=O)C3CCc4sc(NC(=O)C5CC5)c(S(=O)(=O)NCC5CC5)c4C3)ccc21 (centres unmarked) [Example 32, 2-(Cyclopropanecarbonylamino)-3-(cyclopropylmethylsulfamoyl)-N-(1-oxoisoindolin-5-yl)-4,5,6,7-tetrahydrobenzothiophene-5-carboxamide] cannot be ordered by pIC50: greater than 6.00 for the first, greater than 6.00 for the second.
